Laboratory results from patent US9775878B2, “Methods for treating bacterial infections using oritavancin and polymyxins” (The Medicines Company, priority 2013, dated 2017).
Like-named read-outs stand apart in the source and are kept apart here.

Experiments:
Format in all cases: cell-based
[1] = system: Acinetobacter baumannii strains; assay: Broth macrodilution MICs under conditions used for synergy time-kill assays; conditions: Acinetobacter baumannii, agent alone, time-kill conditions, read-out: Broth macrodilution MICs
Protocol: (§1) Broth microdilution MIC testing (CLSI M07-A9) was performed on the Acinetobacter baumannii (AB) reference strain ATCC 19606 (obtained from ATCC) and 10 AB strains, including 8 MDRAB (resistant to ≧3 of the following: beta-lactams, gentamicin, fluoroquinolones and tetracycline; obtained from Eurofins Medinet Chantilly, Va.). The requirement of 0.002% polysorbate 80 (P-80) for testing oritavancin also necessitated the testing of COL in the presence of P80. Checkerboard assays were used to determine activity of antimicrobial combinations; fractional inhibitory concentration indices (FICI) were used to define synergy, indifference or antagonism. Broth macrodilution MICs were determined following conditions used for synergy time-kill assays. Synergy time-kill studies were performed following CLSI guidelines.
(§2) Minimum inhibitory concentrations (MICs). Broth microdilution MICs were determined according to CLSI (CLSI document M7-A9, 2013) guidelines with the exception that COL MICs were also determined in the presence of 0.002% polysorbate 80 (P80) since P80 was to be present in the combination tests because of its requirement for testing oritavancin. Broth macrodilution MICs were determined following conditions used for synergy time-kill assays.

[2] = system: Acinetobacter baumannii strains; assay: Synergy time-kill assay; conditions: concentration of the agent within the ORI+COL combination, ≧2 log CFU/mL decrease vs most active constituent at 24 h, 0.002% P80
Protocol: as §1
Time-kill assays followed CLSI guidelines (NCCLS, CLSI document M26-A2, 1999) with the exception that 96 deep-well plates were used. Exponential-phase bacteria were diluted to approximately 5×10^5 colony-forming units (CFU)/mL and exposed to ORI or COL alone, or in combination in CAMHB containing 0.002% P80. Bacteria were enumerated by serial dilution plating. To prevent drug carryover during serial dilution plating, aliquots of the drug-challenged culture were added to an equal volume of 25 mg/mL activated charcoal suspension. […] All experiments were repeated at least two times and a representative experiment is presented in the plots; data points are an average of duplicate CFU/mL determinations within an experiment.

[3] = system: Acinetobacter baumannii strains; assay: Broth macrodilution MICs under conditions used for synergy time-kill assays; conditions: ATCC19609, strain ATCC 19609 (Non-MDR), agent alone, time-kill conditions, read-out: Broth macrodilution MICs
[4] = system: Acinetobacter baumannii strains; assay: Broth microdilution MIC of colistin in absence and presence of 0.002% polysorbate 80; conditions: for Colistin MIC −P80: absence of polysorbate 80; for Colistin MIC +P80: presence of 0.002% polysorbate-80
Protocol: as §1, with “([…])” for “(AB) reference strain ATCC 19606 (obtained from ATCC)”
as §2

**Q.** Which results are given for CCC(C)CCCC(=O)N[C@H](CCN)C(=O)N[C@H](C(=O)N[C@@H](CCN)C(=O)N[C@H]1CCNC(=O)[C@H]([C@@H](C)O)NC(=O)[C@H](CCN)NC(=O)[C@H](CCN)NC(=O)[C@H](CC(C)C)NC(=O)[C@@H](CC(C)C)NC(=O)[C@H](CCN)NC1=O)[C@@H](C)O (stereo in doubt) [COL, Colistin]?
**A.** MIC ([1]; strain 2691748 (Non-MDR)): > 16 µg/mL; MIC ([1]; strain 2691818 (Non-MDR)): 0.25 µg/mL; MIC ([1]; strain 2691999 (MDR)): 1 µg/mL; MIC ([1]; strain 2692406 (MDR)): 0.25 µg/mL; MIC ([1]; strain 2692650 (MDR)): 0.25 µg/mL; MIC ([1]; strain 2692721 (MDR)): 0.5 µg/mL; MIC ([1]; strain 2693922 (MDR)): 0.5 µg/mL; MIC ([1]; strain 2694038 (MDR)): 0.12 µg/mL; MIC ([1]; strain 2694224 (MDR)): 0.5 µg/mL; MIC ([1]; strain 2694227 (MDR)): 0.5 µg/mL; Concentrations that yielded synergy in time-kill ([2]; strain 2691748 (Non-MDR)): 1 µg/mL; Concentrations that yielded synergy in time-kill ([2]; strain 2691818 (Non-MDR)): 0.12 µg/mL; Concentrations that yielded synergy in time-kill ([2]; strain 2691999 (MDR)): 0.12 µg/mL; Concentrations that yielded synergy in time-kill ([2]; strain 2692406 (MDR)): 0.12 µg/mL; Concentrations that yielded synergy in time-kill ([2]; strain 2692650 (MDR)): 0.12 µg/mL; Concentrations that yielded synergy in time-kill ([2]; strain 2692721 (MDR)): 0.12 µg/mL; Concentrations that yielded synergy in time-kill ([2]; strain 2693922 (MDR)): 0.12 µg/mL; Concentrations that yielded synergy in time-kill ([2]; strain 2694038 (MDR)): 0.06 µg/mL; Concentrations that yielded synergy in time-kill ([2]; strain 2694224 (MDR)): 0.12 µg/mL; Concentrations that yielded synergy in time-kill ([2]; strain 2694227 (MDR)): 0.12 µg/mL; Concentrations that yielded synergy in time-kill ([2]; strain ATCC 19609 (Non-MDR)): 0.06 µg/mL; MIC [3]: 0.25 µg/mL; Fold change in MIC (−P80/+P80) ([4]; strain 2691748 (Non-MDR)): 8; Colistin MIC −P80 ([4]; strain 2691748 (Non-MDR)): 4 µg/mL; Colistin MIC +P80 ([4]; strain 2691748 (Non-MDR)): 0.5 µg/mL; Fold change in MIC (−P80/+P80) ([4]; strain 2691818 (Non-MDR)): 2; Colistin MIC −P80 ([4]; strain 2691818 (Non-MDR)): 2 µg/mL; Colistin MIC +P80 ([4]; strain 2691818 (Non-MDR)): 1 µg/mL; Fold change in MIC (−P80/+P80) ([4]; strain 2691999 (MDR)): 4; Colistin MIC −P80 ([4]; strain 2691999 (MDR)): 1 µg/mL; Colistin MIC +P80 ([4]; strain 2691999 (MDR)): 0.25 µg/mL; Fold change in MIC (−P80/+P80) ([4]; strain 2692406 (MDR)): 16; Colistin MIC −P80 ([4]; strain 2692406 (MDR)): 2 µg/mL; Colistin MIC +P80 ([4]; strain 2692406 (MDR)): 0.125 µg/mL; Fold change in MIC (−P80/+P80) ([4]; strain 2692650 (MDR)): 4; Colistin MIC −P80 ([4]; strain 2692650 (MDR)): 0.5 µg/mL; Colistin MIC +P80 ([4]; strain 2692650 (MDR)): 0.125 µg/mL; Fold change in MIC (−P80/+P80) ([4]; strain 2692721 (MDR)): 4; Colistin MIC −P80 ([4]; strain 2692721 (MDR)): 1 µg/mL; Colistin MIC +P80 ([4]; strain 2692721 (MDR)): 0.25 µg/mL; Fold change in MIC (−P80/+P80) ([4]; strain 2693922 (MDR)): 4; Colistin MIC −P80 ([4]; strain 2693922 (MDR)): 0.5 µg/mL; Colistin MIC +P80 ([4]; strain 2693922 (MDR)): 0.125 µg/mL; Fold change in MIC (−P80/+P80) ([4]; strain 2694038 (MDR)): 4; Colistin MIC −P80 ([4]; strain 2694038 (MDR)): 1 µg/mL; Colistin MIC +P80 ([4]; strain 2694038 (MDR)): 0.25 µg/mL; Fold change in MIC (−P80/+P80) ([4]; strain 2694224 (MDR)): 4; Colistin MIC −P80 ([4]; strain 2694224 (MDR)): 1 µg/mL; Colistin MIC +P80 ([4]; strain 2694224 (MDR)): 0.25 µg/mL; Fold change in MIC (−P80/+P80) ([4]; strain 2694227 (MDR)): 8; Colistin MIC −P80 ([4]; strain 2694227 (MDR)): 1 µg/mL; Colistin MIC +P80 ([4]; strain 2694227 (MDR)): 0.125 µg/mL; Fold change in MIC (−P80/+P80) ([4]; strain ATCC 19609 (Non-MDR)): 4; Colistin MIC −P80 ([4]; strain ATCC 19609 (Non-MDR)): 1 µg/mL; Colistin MIC +P80 ([4]; strain ATCC 19609 (Non-MDR)): 0.25 µg/mL
